Assay results reported in US8722628B2, “Autophagy-inducing peptide” (priority 2012, dated 2014).

Tested on: H1975 cells
Details: EGFR T790M

Question: `C#Cc1cccc(Nc2ncnc3cc(OCCOC)c(OCCOC)cc23)c1` [Erlotinib] was tested. Which autophagy induction did it give?
Answer: The autophagy induction was “fails to induce autophagy”.

Question: And the cell killing?
Answer: The cell killing was “fails to kill the cells”.
